Inhibition and IL-1β % inhibition data for seven compounds are collected here from patent publication US7297700B2, “Bicycloheteroaryl compounds as P2X7 modulators and uses thereof” (Renovis, Inc., priority 2005, dated 2007).

The test system of one experiment is IL-1β release from THP-1 cells. The experiment is described as follows: IL-1β Release Assay (Alternate Method), THP-1 cells. The class given is cell-based, human. Conditions: Homo sapiens; at 0.3 μM; THP-1 cells, BzATP-stimulated; read-out: IL-1β % inhibition. The gist of the method: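 IL-1β release, measured by ELISA, follows 45 min BzATP (250 uM final) stimulation of THP-1 cells given 30 min compound pretreatment. Cells were first primed 16 h with LPS and IFN-γ (100 ng/mL each), then 2 h with fresh LPS; inhibition expressed in percent after background correction.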
In the case of `O=C(CC12CC3CC(CC(C3)C1)C2)Nc1cccc2c1C=CN(Cc1ccc(F)cc1)C2` [Compound 636], the inhibition at 0.3 µM fell in the range of 0 to 25%.

Still in this experiment, the particulars now being: at 0.3 μM; THP-1 cells, BzATP-stimulated.
In the case of `CCOc1ccc(CN2CCc3c(ncnc3NC(=O)C34CC5CC(CC(C5)C3)C4)C2)cc1` [Compound 630], the IL-1β % inhibition entry was “++++ (compound exhibited 75% or greater inhibition at 0.3 μM)”.
As for `COc1ccc(OC)c(CN2CCc3c(ncnc3NC(=O)C34CC5CC(CC(C5)C3)C4)C2)c1` [Compound 631], the IL-1β % inhibition entry was “+ (compound exhibited 0-25% inhibition at 0.3 μM)”.
For the compound `O=C(Nc1ncnc2c1CCN(Cc1cccc(OC(F)(F)F)c1)C2)C12CC3CC(CC(C3)C1)C2` [Compound 632], the IL-1β % inhibition entry was “++ (compound exhibited 25-50% inhibition at 0.3 μM)”.
Consider `COc1cc(CN2CCc3c(ncnc3NC(=O)C34CC5CC(CC(C5)C3)C4)C2)cc(OC)c1` [Compound 633], for which the IL-1β % inhibition result was “+ (compound exhibited 0-25% inhibition at 0.3 μM)”.
For the compound `O=C(Nc1ncnc2c1CCN(Cc1ccc(Cl)nc1)C2)C12CC3CC(CC(C3)C1)C2` [Compound 634], the IL-1β % inhibition entry is listed as “+ (compound exhibited 0-25% inhibition at 0.3 μM)”.
With `O=C(Nc1ncnc2c1CCN(Cc1ccc(Cl)cc1F)C2)C12CC3CC(CC(C3)C1)C2` [Compound 635], the IL-1β % inhibition entry is “+ (compound exhibited 0-25% inhibition at 0.3 μM)”.

One may read the inhibition as the drop in the measured response relative to a control, in per cent.
